ChEMBL document CHEMBL3272185, “Synthesis and enzymic activity of some novel xanthine oxidase inhibitors. 3-Substituted 5,7-dihydroxypyrazolo(1,5-alpha)pyrimidines” (J Med Chem, 1976)

What was measured:
[1] = target: T1, Xanthine dehydrogenase/oxidase (Bos taurus, UniProt P80457); assay: Inhibition of bovine milk xanthine oxidase using xanthine as substrate at 10 times I50 preincubated for 20 mins at 25 degC measured after 10 fold dilution relative to control; details: cattle
[2] = target: T1, Xanthine dehydrogenase/oxidase; assay: Mixed-type inhibition of bovine milk xanthine oxidase using hypoxanthine as substrate by Lineweaver-Burk plot analysis
[3] = target: T1, Xanthine dehydrogenase/oxidase; assay: Inhibition of bovine milk xanthine oxidase using xanthine as substrate; details: read-out: I50
[4] = target: T1, Xanthine dehydrogenase/oxidase; assay: Inhibition of bovine milk xanthine oxidase using xanthine as substrate at 10 times I50 preincubated for 1 hr at 4 degC measured after 10 fold dilution relative to control; details: cattle
[5] = target: T1, Xanthine dehydrogenase/oxidase; assay: Activity at bovine milk xanthine oxidase assessed as reduction of cytochrome c and phenazine methosulfate; details: cattle
[6] = target: T1, Xanthine dehydrogenase/oxidase; assay: Activity at bovine milk xanthine oxidase assessed as reduction of 2,6-dichlorophenol-indophenol; details: cattle
[7] = target: T1, Xanthine dehydrogenase/oxidase; assay: Mixed-type inhibition of bovine milk xanthine oxidase using xanthine as substrate by Lineweaver-Burk plot analysis
[8] = target: T1, Xanthine dehydrogenase/oxidase; assay: Non-competitive inhibition of bovine milk xanthine oxidase using xanthine as substrate by Lineweaver-Burk plot analysis
[9] = target: T1, Xanthine dehydrogenase/oxidase; assay: Non-competitive inhibition of bovine milk xanthine oxidase using hypoxanthine as substrate by Lineweaver-Burk plot analysis
[10] = target: T1, Xanthine dehydrogenase/oxidase; assay: Inhibition of bovine milk xanthine oxidase using xanthine as substrate assessed as increase of I50 at pH 6.6 to 7.6; details: cattle
[11] = Dissociation constant, pKa of the compound
[12] = target: T1, Xanthine dehydrogenase/oxidase; assay: Inhibition of bovine milk xanthine oxidase using xanthine as substrate assessed as increase of I50 at pH 7.6 to 7.9; details: cattle
[13] = target: T1, Xanthine dehydrogenase/oxidase; assay: Inhibition of bovine milk xanthine oxidase using xanthine as substrate assessed as increase of I50 at pH 8.2 to 8.8; details: cattle
[14] = target: T1, Xanthine dehydrogenase/oxidase; assay: Inhibition of bovine milk xanthine oxidase using xanthine as substrate assessed as increase of I50 at pH 6.6 to 8.2; details: cattle
[15] = target: T1, Xanthine dehydrogenase/oxidase; assay: Inhibition of bovine milk xanthine oxidase using xanthine as substrate assessed as increase of I50 at pH 6.6 to 7.5; details: cattle

T1 sequence (P80457 whole entry): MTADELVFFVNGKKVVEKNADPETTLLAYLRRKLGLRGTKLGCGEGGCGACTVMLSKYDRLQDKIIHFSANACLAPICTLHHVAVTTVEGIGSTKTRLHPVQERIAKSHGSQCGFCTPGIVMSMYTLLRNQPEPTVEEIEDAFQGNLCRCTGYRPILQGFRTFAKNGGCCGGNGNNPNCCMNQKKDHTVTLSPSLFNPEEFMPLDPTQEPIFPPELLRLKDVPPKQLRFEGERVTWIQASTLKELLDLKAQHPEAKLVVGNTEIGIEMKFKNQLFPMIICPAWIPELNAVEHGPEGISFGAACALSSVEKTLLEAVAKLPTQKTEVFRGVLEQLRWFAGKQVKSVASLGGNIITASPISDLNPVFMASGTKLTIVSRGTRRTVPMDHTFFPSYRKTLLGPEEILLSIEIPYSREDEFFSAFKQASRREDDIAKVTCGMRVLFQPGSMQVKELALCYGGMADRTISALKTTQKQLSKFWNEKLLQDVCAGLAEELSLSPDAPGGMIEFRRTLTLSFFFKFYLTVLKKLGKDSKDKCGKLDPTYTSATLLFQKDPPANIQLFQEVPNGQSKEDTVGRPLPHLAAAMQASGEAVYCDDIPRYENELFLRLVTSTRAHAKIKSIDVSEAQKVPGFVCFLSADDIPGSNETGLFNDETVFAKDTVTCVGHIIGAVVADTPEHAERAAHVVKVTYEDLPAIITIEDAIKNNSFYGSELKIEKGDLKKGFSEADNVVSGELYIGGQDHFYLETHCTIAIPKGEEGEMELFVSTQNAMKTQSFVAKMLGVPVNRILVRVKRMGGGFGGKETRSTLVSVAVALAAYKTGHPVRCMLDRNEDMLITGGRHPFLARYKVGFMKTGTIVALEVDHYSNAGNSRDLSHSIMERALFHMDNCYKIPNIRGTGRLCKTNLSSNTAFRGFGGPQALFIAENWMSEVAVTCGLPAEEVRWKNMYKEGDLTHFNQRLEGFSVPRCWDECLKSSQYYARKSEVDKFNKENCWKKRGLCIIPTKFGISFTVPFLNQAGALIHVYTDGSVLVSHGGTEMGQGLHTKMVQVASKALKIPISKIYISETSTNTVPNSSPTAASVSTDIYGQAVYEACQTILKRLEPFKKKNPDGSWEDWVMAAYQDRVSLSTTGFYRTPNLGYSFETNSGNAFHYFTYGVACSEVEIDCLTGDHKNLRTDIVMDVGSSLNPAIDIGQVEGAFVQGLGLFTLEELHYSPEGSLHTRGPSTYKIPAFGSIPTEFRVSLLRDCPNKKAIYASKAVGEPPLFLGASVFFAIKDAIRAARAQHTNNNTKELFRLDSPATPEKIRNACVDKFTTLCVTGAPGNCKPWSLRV

Structure (SMILES): Oc1cc(O)n2ncc(-c3ccc4c(c3)OCO4)c2n1
- inhibition (INH) [1]: 46%
- Ki [2]: 18 nM
- IC50 [3]: 29 nM
- inhibition (INH) [4]: 49%
- Activity [5]: Not Active
- Activity [6]: Not Active
- Ki [7]: 23 nM

Structure (SMILES): Oc1cc(O)n2ncc(-c3cccnc3)c2n1
- inhibition (INH) [1]: 53%
- Ki [8]: 26 nM
- IC50 [3]: 43 nM
- inhibition (INH) [4]: 50%
- Activity [5]: Not Active
- Ki [9]: 31 nM
- Activity [6]: Not Active

Structure (SMILES): Oc1cc(O)n2ncc(-c3cccc4ccccc34)c2n1
- inhibition (INH) [1]: 45%
- Ki [8]: 13 nM
- IC50 [3]: 25 nM
- inhibition (INH) [4]: 46%
- Activity [5]: Not Active
- Ki [9]: 16 nM
- Activity [6]: Not Active

Structure (SMILES): Oc1cc(O)n2ncc(-c3ccc(Cl)cc3)c2n1
- inhibition (INH) [1]: 50%
- Ki [2]: 19 nM
- IC50 [3]: 43 nM
- inhibition (INH) [4]: 53%
- Activity [5]: Not Active
- Activity [6]: Not Active
- Ki [7]: 23 nM

Structure (SMILES): Cc1ccc(-c2cnn3c(O)cc(O)nc23)cc1
- inhibition (INH) [1]: 52%
- Ki [2]: 24 nM
- IC50 [3]: 96 nM
- inhibition (INH) [4]: 55%
- Activity [5]: Not Active
- Activity [6]: Not Active
- Ki [7]: 17 nM

Structure (SMILES): CC(=O)Nc1ccc(-c2cnn3c(O)cc(O)nc23)cc1
- inhibition (INH) [1]: 48%
- Ki [2]: 77 nM
- IC50 [3]: 89 nM
- inhibition (INH) [4]: 47%
- Activity [5]: Not Active
- Activity [6]: Not Active
- Ki [7]: 85 nM

Structure (SMILES): Oc1cc(O)n2nccc2n1
- inhibition (INH) [1]: 49%
- Ki [8]: 5400 nM
- IC50 [3]: 5000 nM
- inhibition (INH) [4]: 47%
- Activity [5]: Not Active
- inhibition (INH) [10]: Active
- pKa [11]: 3.7
- Ki [9]: 4200 nM
- inhibition (INH) [12]: Active
- Activity [6]: Not Active

Structure (SMILES): Oc1cc(O)n2ncc(-c3ccccc3)c2n1
- inhibition (INH) [1]: 49%
- Ki [8]: 53 nM
- inhibition (INH) [13]: Active
- IC50 [3]: 38 nM
- inhibition (INH) [4]: 47%
- Activity [5]: Not Active
- pKa [11]: 3.8
- Ki [9]: 60 nM
- Activity [6]: Not Active
- inhibition (INH) [14]: Active

Structure (SMILES): Cc1cccc(-c2cnn3c(O)cc(O)nc23)c1
- inhibition (INH) [1]: 48%
- Ki [2]: 19 nM
- IC50 [3]: 25 nM
- inhibition (INH) [4]: 50%
- Activity [5]: Not Active
- Activity [6]: Not Active
- Ki [7]: 20 nM

Structure (SMILES): Oc1cc(O)n2ncc(Cl)c2n1
- inhibition (INH) [1]: 44%
- Ki [8]: 2000 nM
- IC50 [3]: 1400 nM
- inhibition (INH) [4]: 45%
- Activity [5]: Not Active
- Ki [9]: 1800 nM
- Activity [6]: Not Active

Structure (SMILES): O=c1[nH]c(=O)c2[nH]cnc2[nH]1 [XANTHINE]
- Activity [5]: Active
- pKa [11]: 7.6
- Activity [6]: Active

Structure (SMILES): Oc1cc(O)n2ncc(-c3ccc(Br)cc3)c2n1
- inhibition (INH) [1]: 53%
- Ki [2]: 23 nM
- inhibition (INH) [13]: Active
- IC50 [3]: 33 nM
- inhibition (INH) [4]: 52%
- Activity [5]: Not Active
- pKa [11]: 3.8
- Activity [6]: Not Active
- inhibition (INH) [14]: Active
- Ki [7]: 26 nM

Structure (SMILES): O=[N+]([O-])c1cnn2c(O)cc(O)nc12
- inhibition (INH) [1]: 53%
- Ki [2]: 31000 nM
- IC50 [3]: 15000 nM
- inhibition (INH) [4]: 51%
- Activity [5]: Not Active
- Activity [6]: Not Active
- Ki [7]: 37000 nM

Structure (SMILES): Oc1cc(O)n2ncc(Br)c2n1
- inhibition (INH) [1]: 52%
- Ki [8]: 1500 nM
- IC50 [3]: 1200 nM
- inhibition (INH) [4]: 50%
- Activity [5]: Not Active
- Ki [9]: 1200 nM
- Activity [6]: Not Active

Structure (SMILES): O=c1[nH]cnc2nc[nH]c12 [HYPOXANTHINE]
- pKa [11]: 8.7

Structure (SMILES): Oc1ncnc2[nH]ncc12 [ALLOPURINOL]
- inhibition (INH) [1]: 100%
- inhibition (INH) [4]: 100%
- Activity [5]: Active
- pKa [11]: 9
- Activity [6]: Active
- inhibition (INH) [15]: Active
